In patent publication US9802937B2, “Substituted pyrazolo{4,3-D}pyrimidines as kinase inhibitors” (ORIGENIS GMBH, priority 2011, dated 2017) one finds Ki data, which are given here for 32 compounds.

This experiment has as its target T1, SYK kinase (Homo sapiens, UniProt P43405).
T1 construct: purchased Invitrogen, Carlsbad
The experiment can be described thus: SYK Assay (OMNIA KINASE ASSAY, SOX peptide fluorescence). The conditions noted are these: apparent Ki calculated from the IC50 using the Cheng-Prusoff equation; 1 mM ATP, 30° C.; read-out: SYK Activities: Ki. The experiment is classed as biochemical. As to the method:
In the assay OMNIA® KINASE ASSAY by Invitrogen Corporation (Carlsbad) the effect of invention of a compound on the phosphorylation is determined by measurement of fluorescence intensity of a chelation-enhanced fluorophore called SOX. Upon phosphorylation of the peptide by the kinase of interest, Mg2+ is chelated to form a bridge between the SOX moiety and the phosphate group that is transferred to the specific tyrosine on the peptide. The fluorescence intensity is directly proportional to the amount of peptide phosphorylation.
To the wells of an 384 well small volume plate (Greiner, Frickenhausen) are added (i) the compound under test in 5% DMSO/distilled water (2 μl), (ii) 16 μl of the master mix containing ATP, DTT, Kinase Reaction Buffer, Omina Peptide Substrate Tyr 7 resulting in a final concentration of 1 mM ATP, 0.2 mM DTT and 10 μM Peptide Substrate.
The Master Mix and the assay plate was incubated to reaction temperature before the measurement (30° C.). The reaction was started with addition of (iii) 2 μl 4 μg/ml SYK kinase (Invitrogen, Carlsbad). During measurement fluorescence intensitiy readings were collected using a TECAN M1000 at a wavelength of λex 360/λem 485 nm every 30 s for 30 minutes. The reaction velocity was plotted versus the inhibitor concentration to determine the […] using XLFit 5.0 (IDBS, Guildford) to fit to a sigmoidal dose response curve, and the apparent Ki values were calculated from the IC50 using the Cheng-Prusoff equation (Cheng, Y.; Prusoff, W. H. Biochem. Pharmacol. 22, 3099-3108, 1973).

SMILES strings stand for the structures. Where only a bound is given, the exact number is not on record here.

In the case of `N[C@@H]1CCCC[C@H]1Nc1nc(-c2ccsc2)nc2cn[nH]c12` [Example #115, (1R,2R)—N-(5-Thiophen-3-yl-1H-pyrazolo[4,3-d]pyrimidin-7-yl)-cyclohexane-1,2-diamine], the Ki is 100 to 1000 nM. Take `N[C@@H]1CCCC[C@@H]1Nc1nc(-c2ccsc2)nc2cn[nH]c12` [Example #116, (1S,2R)—N-(5-Thiophen-3-yl-1H-pyrazolo[4,3-d]pyrimidin-7-yl)-cyclohexane-1,2-diamine]: the Ki was 10 to 100 nM. For the compound `COc1ccc(OC)c(-c2nc(Nc3ccc(OC)c(OC)c3)c3[nH]ncc3n2)c1` [Example #121, 5-(2,5-dimethoxyphenyl)-N-(3,4-dimethoxyphenyl)-1H-pyrazolo[4,3-d]pyrimidin-7-amine], the Ki was 100 to 1000 nM.

Consider `CCN1CCN(c2ccc(Nc3nc(-c4cc(OC)ccc4OC)nc4cn[nH]c34)cc2)CC1` [Example #122, 5-(2,5-dimethoxyphenyl)-N-(4-(4-ethylpiperazin-1-yl)phenyl)-1H-pyrazolo[4,3-d]pyrimidin-7-amine], for which the Ki was 10 to 100 nM. In the case of `COc1ccc(OC)c(-c2nc(Nc3ccc(N4CCN(C5CC5)CC4)cc3)c3[nH]ncc3n2)c1` [Example #123, N-(4-(4-cyclopropylpiperazin-1-yl)phenyl)-5-(2,5-dimethoxyphenyl)-1H-pyrazolo[4,3-d]pyrimidin-7-amine], the Ki was 10 to 100 nM. Turning to `COc1ccc(Nc2nc(-c3cn4ccccc4n3)nc3cn[nH]c23)cc1OC` [Example #124, N-(3,4-dimethoxyphenyl)-5-(imidazo[1,2-a]pyridin-2-yl)-1H-pyrazolo[4,3-d]pyrimidin-7-amine], the Ki was 10 to 100 nM. With `CCN1CCN(c2ccc(Nc3nc(-c4cn5ccccc5n4)nc4cn[nH]c34)cc2)CC1` [Example #125, N-(4-(4-ethylpiperazin-1-yl)phenyl)-5-(imidazo[1,2-a]pyridin-2-yl)-1H-pyrazolo[4,3-d]pyrimidin-7-amine] the figure was 10 to 100 nM; with `O=C(O)c1ccc(Nc2nc(-c3cn4ccccc4n3)nc3cn[nH]c23)cc1` [Example #128, 4-((5-(imidazo[1,2-a]pyridin-2-yl)-1H-pyrazolo[4,3-d]pyrimidin-7-yl)amino)benzoic-acid], less than 10 nM; with `COc1ccc(Nc2nc(-c3nc4ccccc4[nH]3)nc3cn[nH]c23)cc1OC` [Example #129, 5-(1H-benzo[d]imidazol-2-yl)-N-(3,4-dimethoxyphenyl)-1H-pyrazolo[4,3-d]pyrimidin-7-amine], 10 to 100 nM.

For `COc1ccc(Nc2nc(-c3nc4ccccc4n3C)nc3cn[nH]c23)cc1OC` [Example #130, N-(3,4-dimethoxyphenyl)-5-(1-methyl-1H-benzo[d]imidazol-2-yl)-1H-pyrazolo[4,3-d]pyrimidin-7-amine], the Ki was 100 to 1000 nM. Under `Cc1cccc(NC(=O)Nc2ccc(Nc3nc(-c4ccsc4)nc4cn[nH]c34)cc2)c1` [Example #133, 1-(4-((5-(thiophen-3-yl)-1H-pyrazolo[4,3-d]pyrimidin-7-yl)amino)phenyl)-3-(m-tolyl)urea] stands 100 to 1000 nM; under `CN1CCN(c2ccc(Nc3nc(-c4ncc[nH]4)nc4cn[nH]c34)cc2)CC1` [Example #141, 5-(1H-imidazol-2-yl)-N-(4-(4-methylpiperazin-1-yl)phenyl)-1H-pyrazolo[4,3-d]pyrimidin-7-amine], 10 to 100 nM; under `CC1(C)CNc2cc(Nc3nc(-c4ccsc4)nc4cn[nH]c34)ccc2S1` [Example #148, 2,2-dimethyl-N-(5-(thiophen-3-yl)-1H-pyrazolo[4,3-d]pyrimidin-7-yl)-3,4-dihydro-2H-benzo[b][1,4]thiazin-6-amine], 100 to 1000 nM. With `CN1CCN(c2ccc(Nc3nc(-c4cccc(-c5nn[nH]n5)c4)nc4cn[nH]c34)cc2)CC1` [Example #149, 5-(3-(2H-tetrazol-5-yl)phenyl)-N-(4-(4-methylpiperazin-1-yl)phenyl)-1H-pyrazolo[4,3-d]pyrimidin-7-amine] the figure was less than 10 nM; with `CN(C)CCNc1nc(C(=O)c2ccccc2)nc2cn[nH]c12` [Example #150, (7-((2-(dimethylamino)ethyl)amino)-1H-pyrazolo[4,3-d]pyrimidin-5-yl)(phenyl)methanone], 100 to 1000 nM; with `CN1CCC(CNc2nc(C(=O)c3ccccc3)nc3cn[nH]c23)CC1` [Example #151, (7-(((1-methylpiperidin-4-yl)methyl)amino)-1H-pyrazolo[4,3-d]pyrimidin-5-yl)(phenyl)methanone], less than 10 nM.

On to `CN1CCN(c2ccc(Nc3nc(C(=O)c4ccccc4)nc4cn[nH]c34)cc2)CC1` [Example #152, (7-((4-(4-methylpiperazin-1-yl)phenyl)amino)-1H-pyrazolo[4,3-d]pyrimidin-5-yl)(phenyl)methanone], for which the Ki is 10 to 100 nM. For the compound `COc1ccc(Nc2nc(C(=O)c3ccccc3)nc3cn[nH]c23)cc1OC` [Example #153, (7-((3,4-dimethoxyphenyl)amino)-1H-pyrazolo[4,3-d]pyrimidin-5-yl)(phenyl)methanone], the Ki is 100 to 1000 nM. Under `O=C1CSc2ccc(Nc3nc(-c4cccs4)nc4cn[nH]c34)cc2N1` [Example #165, 6-((5-(thiophen-2-yl)-1H-pyrazolo[4,3-d]pyrimidin-7-yl)amino)-2H-benzo[b][1,4]thiazin-3(4H)-one] stands 10 to 100 nM. With `CC(C)(C#N)c1ccc(Nc2nc(-c3cccs3)nc3cn[nH]c23)cc1` [Example #167, 2-methyl-2-(4-((5-(thiophen-2-yl)-1H-pyrazolo[4,3-d]pyrimidin-7-yl)amino)phenyl)propanenitrile] the figure was 10 to 100 nM. Under `COc1ccc(-c2nc(Nc3ccc(N4CCSCC4)cc3)c3[nH]ncc3n2)cc1` [Example #168, 5-(4-methoxyphenyl)-N-(4-thiomorpholinophenyl)-1H-pyrazolo[4,3-d]pyrimidin-7-amine] stands 10 to 100 nM; under `CN1CCN(c2ccc(Nc3nc(-c4cccc(OCC(=O)O)c4)nc4cn[nH]c34)cc2)CC1` [Example #174, 2-(3-(7-((4-(4-methylpiperazin-1-yl)phenyl)amino)-1H-pyrazolo[4,3-d]pyrimidin-5-yl)phenoxy)acetic acid], 100 to 1000 nM. For `CN1CCN(c2ccc(Nc3nc(-c4cccc(CC(=O)O)c4)nc4cn[nH]c34)cc2)CC1` [Example #176, 2-(3-(7-((4-(4-methylpiperazin-1-yl)phenyl)amino)-1H-pyrazolo[4,3-d]pyrimidin-5-yl)phenyl)acetic acid], the Ki was 10 to 100 nM.

For `CN1CCN(c2ccc(Nc3nc(-c4cccc(C(=O)O)n4)nc4cn[nH]c34)cc2)CC1` [Example #177, 6-(7-((4-(4-methylpiperazin-1-yl)phenyl)amino)-1H-pyrazolo[4,3-d]pyrimidin-5-yl)picolinic acid], the Ki is 10 to 100 nM. Under `FS(F)(F)(F)(F)c1ccc(Nc2nc(-c3ccsc3)nc3cn[nH]c23)cc1` [Example #178, N-(4-(pentafluorosulfanyl)phenyl)-5-(thiophen-3-yl)-1H-pyrazolo[4,3-d]pyrimidin-7-amine] stands 100 to 1000 nM; under `Cc1ccc(CNCc2cccc(-c3nc(Nc4ccc(N5CCN(C)CC5)cc4)c4[nH]ncc4n3)c2)cc1` [Example #180, 5-(3-(((4-methylbenzyl)amino)methyl)phenyl)-N-(4-(4-methylpiperazin-1-yl)phenyl)-1H-pyrazolo[4,3-d]pyrimidin-7-amine], 10 to 100 nM; under `CN(C)CCCOc1cccc(-c2nc(Nc3ccc(N4CCN(C)CC4)cc3)c3[nH]ncc3n2)c1` [Example #181, 5-(3-(3-(dimethylamino)propoxy)phenyl)-N-(4-(4-methylpiperazin-1-yl)phenyl)-1H-pyrazolo[4,3-d]pyrimidin-7-amine], 10 to 100 nM. With `CC(=O)N1CCN(c2ccc(Nc3nc(-c4cccc(-c5nn[nH]n5)c4)nc4cn[nH]c34)cc2)CC1` [Example #192, 1-(4-(4-((5-(3-(2H-tetrazol-5-yl)phenyl)-1H-pyrazolo[4,3-d]pyrimidin-7-yl)amino)phenyl)piperazin-1-yl)ethan-1-one] the figure was less than 10 nM.

Regarding `COC(=O)c1cccc(-c2nc(Nc3ccc4c(c3)NC(=O)CC4)c3[nH]ncc3n2)c1` [Example #210, methyl 3-(7-((2-oxo-1,2,3,4-tetrahydroquinolin-7-yl)amino)-1H-pyrazolo[4,3-d]pyrimidin-5-yl)benzoate], the Ki was 10 to 100 nM. Under `COC(=O)c1cccc(-c2nc(Nc3ccc4c(c3)NC(=O)CO4)c3[nH]ncc3n2)c1` [Example #211, methyl 3-(7-((3-oxo-3,4-dihydro-2H-benzo[b][1,4]oxazin-6-yl)amino)-1H-pyrazolo[4,3-d]pyrimidin-5-yl)benzoate] stands 10 to 100 nM; under `O=C1COc2ccc(Nc3nc(-c4cccc(C(=O)O)c4)nc4cn[nH]c34)cc2N1` [Example #212, 3-(7-((3-oxo-3,4-dihydro-2H-benzo[b][1,4]oxazin-6-yl)amino)-1H-pyrazolo[4,3-d]pyrimidin-5-yl)benzoic acid], 10 to 100 nM. For the compound `COC(=O)c1ccc(-c2nc(Nc3ccc(N4CCN(C)CC4)cc3)c3[nH]ncc3n2)cc1` [Example #213, methyl 4-(7-((4-(4-methylpiperazin-1-yl)phenyl)amino)-1H-pyrazolo[4,3-d]pyrimidin-5-yl)benzoate], the Ki is less than 10 nM.
